# Results from US8163790B2, “Metronidazole cocrystals and imipramine cocrystals” (New Form Pharmaceuticals, Inc., priority 2005, dated 2012).
# Assays:
# [1] = water at 23° C., 900 mL, 100 rpm
# [2] = Intrinsic dissolution of metronidazole:gallic acid cocrystal (Woods apparatus, UV 318 nm); type: physicochemical; settings: water at 37° C., 900 mL, 100 rpm, 0.50 cm^2, relative to metronidazole
# Method: Samples of metronidazole and the metronidazole cocrystal were compressed at 1000 psi for approximately one minute. […] A dissolution medium of water was used at 37° C. […] Metronidazole and the metronidazole:gallic acid cocrystal solutions were analyzed with a Cary 50 UV-VIS single-beam spectrophotometer without dilution at room temperature in a 1.000 cm quartz cuvette. […] Wavelength calibration was performed using holmium oxide.
# [3] = intrinsic dissolution, 900 mL, 100 rpm, 0.50 cm^2; media 34 mM aqueous NaCl, water at 37° C., water at ambient temperature (medium of the value not stated); relative to imipramine HCl
smiles,measurement,setting,value
"CN(C)CCCN1c2ccccc2CCc2ccccc21.Cl [imipramine HCl, Imipramine hydrochloride, reference compound]",imipramine dissolved from imipramine HCl,[1]; in two minutes,0.013 mg/mL
Cc1ncc([N+](=O)[O-])n1CCO.O=C(O)c1cc(O)c(O)c(O)c1 [metronidazole:gallic acid cocrystal],dissolution rate of the cocrystal as % of the rate of metronidazole,[2],about 22%
CN(C)CCCN1c2ccccc2CCc2ccccc21.Cl.O=C(O)c1ccc2ccccc2c1O,imipramine HCl dissolved from the cocrystal,[1]; at 300 minutes,less than 0.0063 mg/mL
same,dissolution rate compared with imipramine HCl (in words),"[1]; intrinsic dissolution, rate too slow to quantify accurately",much slower rate
CN(C)CCCN1c2ccccc2CCc2ccccc21.CN(C)CCCN1c2ccccc2CCc2ccccc21.Cl.Cl.O=C(O)C=CC(=O)O [imipramine HCl:fumaric acid cocrystal],dissolution rate of the cocrystal as % of the rate of imipramine HCl,[3],about 58%
